Data from patent publication US20230085307A1, “PYRIDAZINONE COMPOUND AND HERBICIDE” (NISSAN CHEMICAL CORPORATION, priority 2019, published 2023).

tested on: oval-leafed pondweed; experiment: Test Example 1: herbicidal activity, application before weed generation under submerged conditions (Table 16, symbol C); type: in vivo, oval-leafed pondweed (Monochoria vaginalis); conditions: 320 g/ha applied herbicide
Summary of the method: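 Submerged Wagner pots (alluvial soil, 4 cm water) sown with weed seeds and planted with 2.5-leaf rice seedlings; emulsifiable concentrate diluted in water applied to water surface on sowing day. Held in greenhouse at 25-30 °C; injury scored 0-5 by herbicidal rate after three weeks.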

Compound | Herbicidal effect on C: oval-leafed pondweed (grade 0-5)
CON=C(C)c1ccc(-c2sc3ccc(F)cc3c2-c2c(O)c(C)nn(C)c2=O)cc1 [2-079] | 1 (Herbicidal rate of 5% or more and less than 20%)
CCCC(=O)Oc1c(C)nn(C)c(=O)c1-c1c(-c2ccc(C(C)=NOC)cc2)sc2ccc(F)cc12 [2-080] | 4 (Herbicidal rate of 70% or more and less than 90%)

tested on: Japanese bulrush; experiment: Test Example 2: herbicidal activity, application during weed generation under submerged conditions (Table 17, symbol B); type: in vivo, Japanese bulrush (Schoenoplectus juncoides); conditions: AAH 320 g/ha; application during weed generation, submerged conditions
Summary of the method: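 Steps: fill Wagner pots with alluvial soil; add water to give 4 cm depth; sow the species mixed; grow under glass at 25–30° C.; at 1–2 leaves apply water-diluted emulsion formulation to the water surface at a fixed herbicide amount; score after 3 weeks.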

Compound | herbicidal effect rating, B: Japanese bulrush
CON=C(C)c1ccc(-c2sc3ccc(F)cc3c2-c2c(O)c(C)nn(C)c2=O)cc1 [2-079] | 0 (Herbicidal rate of 5% or less (almost no effect))
CCCC(=O)Oc1c(C)nn(C)c(=O)c1-c1c(-c2ccc(C(C)=NOC)cc2)sc2ccc(F)cc12 [2-080] | 4 (Herbicidal rate of 70% or more and less than 90%)

tested on: southern crabgrass; experiment: Test Example 4: herbicidal effect by soil treatment (Table 19, symbol F); type: in vivo, southern crabgrass (Digitaria ciliaris); conditions: 320 g/ha
Summary of the method: (§1)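 Three weeks of greenhouse growth at 25° C. to 30° C. followed a uniform surface spray of water-diluted emulsion at a predetermined herbicide amount. Seeds had been sown beforehand under about 1.5 cm of sterilized diluvial soil. Grading followed criteria set out in an earlier test.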

Compound | herbicidal effect rating, F: southern crabgrass
CON=C(C)c1ccc(-c2sc3ccc(F)cc3c2-c2c(O)c(C)nn(C)c2=O)cc1 [2-079] | 5 (Herbicidal rate of 90% or more (almost completely withered))
CCCC(=O)Oc1c(C)nn(C)c(=O)c1-c1c(-c2ccc(C(C)=NOC)cc2)sc2ccc(F)cc12 [2-080] | 2 (Herbicidal rate of 20% or more and less than 40%)

tested on: green foxtail; experiment: Test Example 4: herbicidal effect by soil treatment (Table 19, symbol G); type: in vivo, green foxtail (Setaria viridis); conditions: 320 g/ha
Summary of the method: as §1

Compound | herbicidal effect rating, G: green foxtail
CON=C(C)c1ccc(-c2sc3ccc(F)cc3c2-c2c(O)c(C)nn(C)c2=O)cc1 [2-079] | 5 (Herbicidal rate of 90% or more (almost completely withered))
CCCC(=O)Oc1c(C)nn(C)c(=O)c1-c1c(-c2ccc(C(C)=NOC)cc2)sc2ccc(F)cc12 [2-080] | 1 (Herbicidal rate of 5% or more and less than 20%)

tested on: barnyard grass; experiment: Test Example 4: herbicidal effect by soil treatment (Table 19, symbol H); type: in vivo, barnyard grass (Echinochloa crus-galli); conditions: 320 g/ha
Summary of the method: as §1

Compound | herbicidal effect rating, H: barnyard grass
CON=C(C)c1ccc(-c2sc3ccc(F)cc3c2-c2c(O)c(C)nn(C)c2=O)cc1 [2-079] | 4 (Herbicidal rate of 70% or more and less than 90%)
CCCC(=O)Oc1c(C)nn(C)c(=O)c1-c1c(-c2ccc(C(C)=NOC)cc2)sc2ccc(F)cc12 [2-080] | 2 (Herbicidal rate of 20% or more and less than 40%)

tested on: wild oat; experiment: Test Example 4: herbicidal effect by soil treatment (Table 19, symbol I); type: in vivo, wild oat (Avena fatua); conditions: 320 g/ha
Summary of the method: as §1

Compound | herbicidal effect rating, I: wild oat
CON=C(C)c1ccc(-c2sc3ccc(F)cc3c2-c2c(O)c(C)nn(C)c2=O)cc1 [2-079] | 0 (Herbicidal rate of 5% or less (almost no effect))
CCCC(=O)Oc1c(C)nn(C)c(=O)c1-c1c(-c2ccc(C(C)=NOC)cc2)sc2ccc(F)cc12 [2-080] | 0 (Herbicidal rate of 5% or less (almost no effect))

tested on: blackgrass; experiment: Test Example 4: herbicidal effect by soil treatment (Table 19, symbol J); type: in vivo, blackgrass (Alopecurus myosuroides); conditions: 320 g/ha
Summary of the method: as §1

Compound | herbicidal effect rating, J: blackgrass
CON=C(C)c1ccc(-c2sc3ccc(F)cc3c2-c2c(O)c(C)nn(C)c2=O)cc1 [2-079] | 0 (Herbicidal rate of 5% or less (almost no effect))
CCCC(=O)Oc1c(C)nn(C)c(=O)c1-c1c(-c2ccc(C(C)=NOC)cc2)sc2ccc(F)cc12 [2-080] | 1 (Herbicidal rate of 5% or more and less than 20%)

tested on: velvetleaf; experiment: Test Example 4: herbicidal effect by soil treatment (Table 19, symbol M); type: in vivo, velvetleaf (Abutilon theophrasti); conditions: 320 g/ha
Summary of the method: as §1

Compound | herbicidal effect rating, M: velvetleaf
CON=C(C)c1ccc(-c2sc3ccc(F)cc3c2-c2c(O)c(C)nn(C)c2=O)cc1 [2-079] | 4 (Herbicidal rate of 70% or more and less than 90%)
CCCC(=O)Oc1c(C)nn(C)c(=O)c1-c1c(-c2ccc(C(C)=NOC)cc2)sc2ccc(F)cc12 [2-080] | 5 (Herbicidal rate of 90% or more (almost completely withered))

tested on: lambsquarters; experiment: Test Example 4: herbicidal effect by soil treatment (Table 19, symbol O); type: in vivo, lambsquarters (Chenopodium album); conditions: 320 g/ha
Summary of the method: as §1

Compound | herbicidal effect rating, O: lambsquarters
CON=C(C)c1ccc(-c2sc3ccc(F)cc3c2-c2c(O)c(C)nn(C)c2=O)cc1 [2-079] | 5 (Herbicidal rate of 90% or more (almost completely withered))
CCCC(=O)Oc1c(C)nn(C)c(=O)c1-c1c(-c2ccc(C(C)=NOC)cc2)sc2ccc(F)cc12 [2-080] | 5 (Herbicidal rate of 90% or more (almost completely withered))

tested on: chickweed; experiment: Test Example 4: herbicidal effect by soil treatment (Table 19, symbol P); type: in vivo, common chickweed (Stellaria media); conditions: 320 g/ha
Summary of the method: as §1

Compound | herbicidal effect rating, P: chickweed
CON=C(C)c1ccc(-c2sc3ccc(F)cc3c2-c2c(O)c(C)nn(C)c2=O)cc1 [2-079] | 2 (Herbicidal rate of 20% or more and less than 40%)
CCCC(=O)Oc1c(C)nn(C)c(=O)c1-c1c(-c2ccc(C(C)=NOC)cc2)sc2ccc(F)cc12 [2-080] | 3 (Herbicidal rate of 40% or more and less than 70%)

tested on: persian speedwell; experiment: Test Example 4: herbicidal effect by soil treatment (Table 19, symbol R); type: in vivo, Persian speedwell (Veronica persica); conditions: 320 g/ha
Summary of the method: as §1

Compound | herbicidal effect rating, R: persian speedwell
CON=C(C)c1ccc(-c2sc3ccc(F)cc3c2-c2c(O)c(C)nn(C)c2=O)cc1 [2-079] | 5 (Herbicidal rate of 90% or more (almost completely withered))
CCCC(=O)Oc1c(C)nn(C)c(=O)c1-c1c(-c2ccc(C(C)=NOC)cc2)sc2ccc(F)cc12 [2-080] | 5 (Herbicidal rate of 90% or more (almost completely withered))

tested on: Italian ryegrass; experiment: Test Example 5: herbicidal effect by foliage application, plastic box (Table 20, symbol K); type: in vivo, Italian ryegrass (Lolium multiflorum); conditions: foliage application, 320 g/ha, evaluated three weeks after application
Summary of the method: (§2)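 Plants sown in sterilized diluvial soil and grown 14 days in a greenhouse at 25° C to 30° C, then sprayed on the foliage with the compound's emulsion diluted in water to a predetermined herbicide amount. Injury to weeds and crops scored three weeks after application on a visual rating scale.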

Compound | herbicidal effect on K: Italian ryegrass
CON=C(C)c1ccc(-c2sc3ccc(F)cc3c2-c2c(O)c(C)nn(C)c2=O)cc1 [2-079] | 5 (Herbicidal rate of 90% or more (almost completely withered))
CCCC(=O)Oc1c(C)nn(C)c(=O)c1-c1c(-c2ccc(C(C)=NOC)cc2)sc2ccc(F)cc12 [2-080] | 5 (Herbicidal rate of 90% or more (almost completely withered))

tested on: windgrass; experiment: Test Example 5: herbicidal effect by foliage application, plastic box (Table 20, symbol L); type: in vivo, windgrass (Apera spica-venti); conditions: foliage application, 320 g/ha, evaluated three weeks after application
Summary of the method: as §2

Compound | herbicidal effect on L: windgrass
CON=C(C)c1ccc(-c2sc3ccc(F)cc3c2-c2c(O)c(C)nn(C)c2=O)cc1 [2-079] | 5 (Herbicidal rate of 90% or more (almost completely withered))
CCCC(=O)Oc1c(C)nn(C)c(=O)c1-c1c(-c2ccc(C(C)=NOC)cc2)sc2ccc(F)cc12 [2-080] | 5 (Herbicidal rate of 90% or more (almost completely withered))

tested on: velvetleaf; experiment: Test Example 5: herbicidal effect by foliage application, plastic box (Table 20, symbol M); type: in vivo, velvetleaf (Abutilon theophrasti); conditions: foliage application, 320 g/ha, evaluated three weeks after application
Summary of the method: as §2

Compound | herbicidal effect on M: velvetleaf
CON=C(C)c1ccc(-c2sc3ccc(F)cc3c2-c2c(O)c(C)nn(C)c2=O)cc1 [2-079] | 5 (Herbicidal rate of 90% or more (almost completely withered))
CCCC(=O)Oc1c(C)nn(C)c(=O)c1-c1c(-c2ccc(C(C)=NOC)cc2)sc2ccc(F)cc12 [2-080] | 5 (Herbicidal rate of 90% or more (almost completely withered))

tested on: redroot pigweed; experiment: Test Example 5: herbicidal effect by foliage application, plastic box (Table 20, symbol N); type: in vivo, redroot pigweed (Amaranthus retroflexus); conditions: foliage application, 320 g/ha, evaluated three weeks after application
Summary of the method: as §2

Compound | herbicidal effect on N: redroot pigweed
CON=C(C)c1ccc(-c2sc3ccc(F)cc3c2-c2c(O)c(C)nn(C)c2=O)cc1 [2-079] | 5 (Herbicidal rate of 90% or more (almost completely withered))
CCCC(=O)Oc1c(C)nn(C)c(=O)c1-c1c(-c2ccc(C(C)=NOC)cc2)sc2ccc(F)cc12 [2-080] | 5 (Herbicidal rate of 90% or more (almost completely withered))

tested on: lambsquarters; experiment: Test Example 5: herbicidal effect by foliage application, plastic box (Table 20, symbol O); type: in vivo, lambsquarters (Chenopodium album); conditions: foliage application, 320 g/ha, evaluated three weeks after application
Summary of the method: as §2

Compound | herbicidal effect on O: lambsquarters
CON=C(C)c1ccc(-c2sc3ccc(F)cc3c2-c2c(O)c(C)nn(C)c2=O)cc1 [2-079] | 5 (Herbicidal rate of 90% or more (almost completely withered))
CCCC(=O)Oc1c(C)nn(C)c(=O)c1-c1c(-c2ccc(C(C)=NOC)cc2)sc2ccc(F)cc12 [2-080] | 5 (Herbicidal rate of 90% or more (almost completely withered))

tested on: chickweed; experiment: Test Example 5: herbicidal effect by foliage application, plastic box (Table 20, symbol P); type: in vivo, common chickweed (Stellaria media); conditions: foliage application, 320 g/ha, evaluated three weeks after application
Summary of the method: as §2

Compound | herbicidal effect on P: chickweed
CON=C(C)c1ccc(-c2sc3ccc(F)cc3c2-c2c(O)c(C)nn(C)c2=O)cc1 [2-079] | 5 (Herbicidal rate of 90% or more (almost completely withered))
CCCC(=O)Oc1c(C)nn(C)c(=O)c1-c1c(-c2ccc(C(C)=NOC)cc2)sc2ccc(F)cc12 [2-080] | 5 (Herbicidal rate of 90% or more (almost completely withered))
